Source: ChEMBL document CHEMBL3526122, “Identification of UDP-glucuronosyltransferases responsible for the glucuronidation of darexaban, an oral factor Xa inhibitor, in human liver and intestine” (Drug Metab Dispos, 2012)

How the values were obtained:
[1] = target: T1, UDP-glucuronosyltransferase 1A6 (Homo sapiens, UniProt P19224); assay: Activity of human recombinant UGT1A6 expressed in baculovirus-infected insect cells assessed as enzyme-mediated glucuronidation per mg of protein after 10 mins in presence of UDPGA; format: ADME
T1 sequence (P19224 whole entry): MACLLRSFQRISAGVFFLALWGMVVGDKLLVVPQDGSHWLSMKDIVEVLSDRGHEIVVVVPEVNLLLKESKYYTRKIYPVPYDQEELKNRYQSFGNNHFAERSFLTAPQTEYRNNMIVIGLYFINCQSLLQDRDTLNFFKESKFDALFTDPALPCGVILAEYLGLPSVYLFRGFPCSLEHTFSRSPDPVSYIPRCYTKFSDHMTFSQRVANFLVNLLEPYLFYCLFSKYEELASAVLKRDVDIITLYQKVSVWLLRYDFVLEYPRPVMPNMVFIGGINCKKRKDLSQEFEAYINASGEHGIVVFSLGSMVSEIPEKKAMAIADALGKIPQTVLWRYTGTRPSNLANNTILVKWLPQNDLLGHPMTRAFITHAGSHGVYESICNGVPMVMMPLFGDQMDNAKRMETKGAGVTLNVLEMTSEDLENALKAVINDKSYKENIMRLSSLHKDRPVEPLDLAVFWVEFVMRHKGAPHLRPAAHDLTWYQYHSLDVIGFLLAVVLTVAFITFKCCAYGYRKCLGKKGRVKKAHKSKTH

[2] = target: T2, UDP-glucuronosyltransferase 1A9 (Homo sapiens, UniProt O60656); assay: Activity of human recombinant UGT1A9 expressed in baculovirus-infected insect cells assessed as unbound intrinsic clearance for enzyme-mediated glucuronidation per mg of protein after 5 mins by Michaelis-Menten plot analysis in presence of UDPGA and 2% fatty acid free BSA; format: ADME
T2 sequence (O60656 whole entry): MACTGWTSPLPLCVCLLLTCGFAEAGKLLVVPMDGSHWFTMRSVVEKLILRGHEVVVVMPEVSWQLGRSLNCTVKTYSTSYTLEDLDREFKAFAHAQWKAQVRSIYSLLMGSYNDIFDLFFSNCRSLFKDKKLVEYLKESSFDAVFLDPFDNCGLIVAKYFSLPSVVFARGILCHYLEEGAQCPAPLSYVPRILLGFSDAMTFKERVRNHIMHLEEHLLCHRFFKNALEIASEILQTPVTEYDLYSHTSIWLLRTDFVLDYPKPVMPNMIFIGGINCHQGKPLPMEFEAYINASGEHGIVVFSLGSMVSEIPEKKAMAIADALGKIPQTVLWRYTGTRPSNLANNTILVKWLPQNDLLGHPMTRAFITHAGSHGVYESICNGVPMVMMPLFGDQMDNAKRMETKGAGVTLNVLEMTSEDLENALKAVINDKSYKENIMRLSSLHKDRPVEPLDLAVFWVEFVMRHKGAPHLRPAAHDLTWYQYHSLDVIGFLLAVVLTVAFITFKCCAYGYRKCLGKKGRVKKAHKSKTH

[3] = Fraction unbound in human liver microsomes at 1 to 250 uM after 10 mins by ultrafiltration method in presence of 0.1% fatty acid free BSA; format: ADME
[4] = target: T3, UDP-glucuronosyltransferase 2B4 (Homo sapiens, UniProt P06133); assay: Activity of human recombinant UGT2B4 expressed in baculovirus-infected insect cells assessed as enzyme-mediated glucuronidation per mg of protein after 10 mins in presence of UDPGA; format: ADME
T3 sequence (P06133 whole entry): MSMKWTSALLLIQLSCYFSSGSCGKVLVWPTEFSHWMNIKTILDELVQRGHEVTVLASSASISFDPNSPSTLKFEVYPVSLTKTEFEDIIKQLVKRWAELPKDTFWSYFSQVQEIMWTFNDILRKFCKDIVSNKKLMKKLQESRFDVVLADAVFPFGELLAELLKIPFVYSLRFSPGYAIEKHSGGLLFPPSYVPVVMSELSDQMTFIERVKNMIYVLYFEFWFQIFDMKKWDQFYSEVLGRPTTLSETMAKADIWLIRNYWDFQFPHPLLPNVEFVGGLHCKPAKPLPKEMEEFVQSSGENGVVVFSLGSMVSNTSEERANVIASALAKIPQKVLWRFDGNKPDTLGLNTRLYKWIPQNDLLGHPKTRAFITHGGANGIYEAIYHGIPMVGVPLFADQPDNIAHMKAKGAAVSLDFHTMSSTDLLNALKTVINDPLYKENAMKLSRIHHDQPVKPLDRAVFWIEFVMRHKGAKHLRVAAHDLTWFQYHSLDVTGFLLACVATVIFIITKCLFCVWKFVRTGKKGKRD

[5] = Fraction unbound in incubation mixture containing human recombinant UGT1A9 at 1 to 250 uM after 10 mins by ultrafiltration method in absence of fatty acid free BSA
[6] = Drug metabolism in human liver microsomes assessed as glucuronidation after 10 mins by Michaelis-Menten plot analysis in presence of UDPGA and 0.1% fatty acid free BSA; format: ADME; conditions: read-out: Km(unbound)
Liver microsome = assay: Drug metabolism in human liver microsomes assessed as glucuronidation per mg of protein after 10 mins by Michaelis-Menten plot analysis in presence of UDPGA and 0.1% fatty acid free BSA; format: ADME
[7] = target: T2, UDP-glucuronosyltransferase 1A9; assay: Activity of human recombinant UGT1A9 expressed in baculovirus-infected insect cells assessed as unbound intrinsic clearance for enzyme-mediated glucuronidation per mg of protein after 5 mins by Michaelis-Menten plot analysis in presence of UDPGA and absence of fatty acid free BSA; format: ADME
[8] = target: T4, UDP-glucuronosyltransferase 2B17 (Homo sapiens, UniProt O75795); assay: Activity of human recombinant UGT2B17 expressed in baculovirus-infected insect cells assessed as enzyme-mediated glucuronidation per mg of protein after 10 mins in presence of UDPGA; format: ADME
T4 sequence (O75795 whole entry): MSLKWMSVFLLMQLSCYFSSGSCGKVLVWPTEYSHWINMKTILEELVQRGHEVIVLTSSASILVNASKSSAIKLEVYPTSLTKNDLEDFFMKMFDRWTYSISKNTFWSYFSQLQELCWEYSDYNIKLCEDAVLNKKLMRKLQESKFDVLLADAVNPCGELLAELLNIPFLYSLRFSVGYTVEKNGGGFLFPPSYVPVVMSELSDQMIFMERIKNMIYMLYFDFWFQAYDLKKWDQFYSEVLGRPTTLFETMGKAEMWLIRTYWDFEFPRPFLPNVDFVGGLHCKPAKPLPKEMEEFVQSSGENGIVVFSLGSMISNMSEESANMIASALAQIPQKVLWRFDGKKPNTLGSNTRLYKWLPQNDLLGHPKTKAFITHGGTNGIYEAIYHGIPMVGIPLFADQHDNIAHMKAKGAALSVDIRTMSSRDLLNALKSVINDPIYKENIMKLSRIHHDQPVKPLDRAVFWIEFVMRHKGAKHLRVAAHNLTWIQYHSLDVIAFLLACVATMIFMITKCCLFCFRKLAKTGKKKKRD

For `COc1ccc(C(=O)Nc2cccc(O)c2NC(=O)c2ccc(N3CCCN(C)CC3)cc2)cc1.O=C(O)CCC(=O)O`, the Drug metabolism [1] was under 0.01 nmol/min/mg, the CL free [2] was 316 µL/min/mg and the fraction unbound at 10 min, up to 250 µM [3] was 0.72. It also gave a Drug metabolism [4] of under 0.01 nmol/min/mg, a Fu [5] of 0.879 and a Km at 10 min [6] of 17.7 µM. It also gave a Vmax (Liver microsome) of 3.25 nmol/min/mg, a CL free [7] of 138 µL/min/mg and a Drug metabolism [8] of under 0.01 nmol/min/mg.
